From patent publication US20140288010A1, “Compositions and Methods for Increasing Stem Cell Survival” (Georgia Regents Research Institute, Inc., priority 2013, published 2014)
Each block holds one compound with its values, some of them ahead of it.

Assays:
CXCR4 = CXCR4 (Mus musculus, UniProt P70658); conditions: BM supernatant of 3 or 18 month old mice normalized to 150 pg/ml SDF-1; both age groups
Experimental: BM supernatant from 3 or 18 month old mice were normalized by dilution with saline to yield 150 pg/ml of SDF-1 as determined by ELISA. The normalized BM supernatant was added to the lower chamber and the cells (either pretreated with AMD3100 or not) were permitted to migrate for 6 hours.

[1] = tested on: Smad1/5/8-mediated BMP-2 signal transduction; assay: BMP receptor signaling by Western blot ((p)Erk1/2, (p)Smad1/5/8) in BMSCs; type: cell-based, mouse; conditions: for effect of pretreatment on SDF-1β potentiation of BMP-2 signal transduction: pretreatment 4 h, 600 μM AMD3100 or 50 μM U0126, before 300 ng/ml BMP-2
Text: FIGS. 17A and 17D are images of autoradiograms of western blots detecting pErk 1/2, Erk1/2, pSmad 1/5/8, Smad 1/5/8, and beta-actin (loading control) of isolated BMSC cells: Tet-Off-SDF-1β with and without Dox, BMP2, AMD3100, U0126, and combinations thereof (FIG. 17A) and Tet-Off-EV controls with and without Dox, BMP2, AMD3100, U0126, and combinations thereof (FIG. 17D). FIGS. 17B-C and 17E-F are bar graphs showing densitometry quantification of immunoreactive bands of FIGS. 17A and 17D as a ratio of pErk 1/2 to Erk1/2 (17B and 17E) and pSmad 1/5/8 to Smad 1/5/8 (17C and 17F).
(§1) BMP receptor signaling was assessed by Western blot. Serum-starved BMSCs were pretreated with 600 μM AMD3100, 50 μM U0126, or vehicle for 4 h prior to stimulation with 300 ng/ml BMP-2 for 30 min. Whole cell lysates were subjected to SDS-PAGE, electroblotted onto PVDF membranes, and probed for (p)Erk1/2 and (p)Smad1/5/8. Transwell migration assays were performed using conditioned media from genetically engineered BMSCs in lower chambers. Serum-starved Jurkat cells or BMSCs at 5.0-8.0×10^5 cells/ml in upper chambers were allowed to migrate across the 8-μm membranes for 4-8 h prior to quantifying total DNA with CyQuant GR dye at 485/535 nm. Apoptosis was induced with 1.0 mM H2O2 for 6 h. Cell death was quantified by trypan blue staining and Western blot analysis of cleaved caspase-3 and PARP. Autophagy was evaluated by Western blot for LC3-II.

18 month MSCs [2] = assay: Transwell migration of 18 month MSCs; type: cell-based, mouse; conditions: 6 hours treatment
Text: The data shown are averages of quadruplicate wells. Bar graph represents RFU of migrated cells normalized to vehicle control group +/−SEM. *p<0.05 verse control group.
(§2) Low passage MSCs from 18 and 24 month old adult male C57BL/6 mice, procured from the GHSU Institute of Regenerative and Reparative Medicine Stem Cell Core (IRRM-SSC) were used. This age range was chosen based on associated changes in bone formation and mass in the comparatively aged mice (Zhang, et al., Journal of Bone and Mineral Research, 23:1118-1128 (2008)).
(§3) Recombinant active SDF-1β (i.e. full length amino acids 1-72; 100 ng/mL; Peprotech), Recombinant Mouse DPPIV/CD26 enzyme (0.01 μg; R&D) cleaved (Cl.) SDF-1β (aa3-72; 100 ng/mL) (Christopherson, et al., Blood, 101:4680-4686 (2003)), and AMD3100 (400 μM; R&D), an antagonist of SDF-1/CXCR4 axis (Liu, et al., Protein & Cell, 2:845-854 (2011)).
The migration efficiency of 18 month MSCs in response to SDF-1β, its cleaved form and AMD3100, as a positive control, was tested using a transwell migration system.

18 month MSCs [3] = assay: Osteogenic differentiation of MSCs, Alizarin red staining for calcium deposition; type: cell-based, mouse; conditions: for increase of Alizarin red staining for calcium compared to control cells: osteogenic differentiation of MSCs, terminal stages
Text: as §2
To determine the influence of modulating SDF-1 signaling in osteogenic differentiation of 18 month MSCs, the calcium deposition at the terminal stages of differentiation was measured. […] However, the SDF-1β stimulated calcium-staining was reduced by ˜8 fold (FIG. 9B) with co-treatment with C1.SDF-10.

LC3B, p62, pERK = assay: Western blot of LC3B, p62 and pERK in aged MSCs (autophagy and MAPK pathway); type: cell-based, mouse
Text: Low passage MSCs from 18 and 24 month old adult male C57BL/6 mice, procured from the GHSU Institute of Regenerative and Reparative Medicine Stem Cell Core (IRRM-SSC) were used.
Redistribution of LC3B from cytosol (18 kDa) to an autophagosome (16 kDa) is an indication of autophagy induction. P62, also known as sequestosome 1/SQSTM1, is a ubiquitously expressed protein, best characterized for selective autophagy, directly interacts with LC3B on the phagophore through the LC3-interacting region and then degraded.

SDF-1 = assay: qRTPCR of SDF1β, CXCR4 and LC3B mRNA in MSCs after metformin treatment; type: cell-based, mouse; conditions: MSCs treated with metformin compared to controls
BMSCs [4] = assay: Cell viability after H2O2 treatment by trypan blue exclusion staining; type: cell-based, mouse; conditions: 1.0 mM H2O2 for 6 h; p<0.001
Text: BMSCs were transduced with retroviral Tet-Off expression vectors. The sequential protocol of retrovirus production, two-step infection, and selection to generate double-stable Tet-Off-SDF-1β BMSCs and Tet-Off-EV control BMSCs has been described previously (Herberg, et al., Tissue Eng Part A, 19:1-13 (2013)). In brief, 293GPG packaging cells (Ory, et al., Proc. Natl. Acad. Sci. USA, 93:11400-11406 (1996)) were transfected at passage 8 with retroviral Tet-Off expression vectors containing the SDF-1β coding sequence, or empty control (cat#632105) (Clontech Laboratories, Mountain View, Calif., USA). […]
The viability of BMSCs in response to H2O2 treatment was analyzed using standard trypan blue exclusion staining Cells were washed with PBS, lifted with trypsin/EDTA, and resuspended with normal growth medium. Following 1:5 dilution, BMSC suspensions were mixed with an equal volume of 0.4% trypan blue staining solution (cat#15250061) (Gibco, Invitrogen), and counted in 5 inner squares using a hemacytometer with cover slip (Hausser Scientific, Horsham, Pa., USA).
BMP receptor signaling was assessed by Western blot. […] Serum-starved Jurkat cells or BMSCs at 5.0-8.0×10^5 cells/ml in upper chambers were allowed to migrate across the 8-μm membranes for 4-8 h prior to quantifying total DNA with CyQuant GR dye at 485/535 nm. […] Autophagy was evaluated by Western blot for LC3-II.

BMSCs [5] = assay: Transwell migration toward conditioned media from genetically engineered BMSCs, BMSCs; type: cell-based, mouse; conditions: 4-8 h, p<0.01
Experimental: as §1

[6] = tested on: CXCR4-expressing Jurkat cells; assay: Transwell migration toward conditioned media from genetically engineered BMSCs, Jurkat cells; type: cell-based; conditions: 4-8 h, p<0.01
Experimental: as §1

AMPK-α1 and LC3B = assay: qRTPCR of AMPK-α1 and LC3B mRNA in MSCs; type: cell-based, mouse; conditions: 24 month MSCs; 100 ng/ml for 48 hours
Experimental: FIG. 7 is bar graph showing the results of an assay measuring the level of AMPK-alpha1 and LC3B mRNA in 24 month MSCs control cells and cells treated with 100 ng/ml of active SDF-1β for 48 hours. *p<0.05 compared to control group.
as §2, §3

CXCR4, sequence (P70658 whole entry): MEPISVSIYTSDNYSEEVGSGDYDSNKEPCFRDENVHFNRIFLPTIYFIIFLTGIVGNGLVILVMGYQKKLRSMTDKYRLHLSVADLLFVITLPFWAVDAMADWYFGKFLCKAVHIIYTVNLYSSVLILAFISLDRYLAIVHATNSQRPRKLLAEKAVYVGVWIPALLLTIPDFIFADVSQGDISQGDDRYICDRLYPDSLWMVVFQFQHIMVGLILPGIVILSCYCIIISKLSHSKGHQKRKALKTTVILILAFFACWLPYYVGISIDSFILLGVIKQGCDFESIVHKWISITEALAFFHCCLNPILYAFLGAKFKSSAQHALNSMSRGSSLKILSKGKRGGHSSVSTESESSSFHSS

migration of MSCs toward BM supernatant after pretreatment of the cells (CXCR4): blocked all migration
Compound: c1cc(CN2CCCNCCNCCCNCC2)ccc1CN1CCCNCCNCCCNCC1 [AMD3100]
effect of pretreatment on SDF-1β potentiation of BMP-2 signal transduction [1]: abolished
migration of MSCs in transwell migration system relative to control (18 month MSCs [2]): suppressed

Compound: c1cc(-c2cnn3cc(-c4ccc(OCCN5CCCCC5)cc4)cnc23)ccn1 [Compound C]
osteogenic differentiation of MSCs (Alizarin red staining) (18 month MSCs [3]): significantly reduced

Compound: N#CC(=C(/N)Sc1ccccc1N)/C(C#N)=C(\N)Sc1ccccc1N [U0126]
effect of pretreatment on SDF-1β potentiation of BMP-2 signal transduction [1]: abolished

Compound: CN(C)C(=N)N=C(N)N [metformin]
LC3B and p62 levels on further incubation (LC3B, p62, pERK; 18 month and 24 month old MSCs, 24 or 48 h of metformin treatment): gradual reduction of LC3B and p62
increase of Alizarin red staining for calcium compared to control cells (18 month MSCs [3]): ~20 fold
expression of endogenous SDF-1 (SDF-1): increase expression of endogenous SDF-1

Compound: SDF-1β: Recombinant active SDF-1β, full length amino acids 1-72 (Peprotech); in Example 9 overexpressed in engineered BMSCs
LC3B and p62 levels on further incubation (LC3B, p62, pERK; 18 month MSCs, 24 or 48 h, 100 ng/mL): gradual disappearance of LC3B and p62
effect on MAPK pathway and autophagy (LC3B distribution) (LC3B, p62, pERK; 18 month MSCs, six hours of treatment, 100 ng/mL): led to MAPK pathway activation and induced autophagy by distributing LC3B
apoptosis-resistance in genetically engineered BMSCs (BMSCs [4]): significant apoptosis-resistance
Smad1/5/8-mediated BMP-2 signal transduction via Erk1/2 phosphorylation ([1]; SDF-1β overexpressed in genetically engineered BMSCs, 300 ng/ml BMP-2 for 30 min, p<0.05): significantly potentiated
migratory response of BMSCs (BMSCs [5]): significantly promoted
increase of Alizarin red staining for calcium compared to control cells (18 month MSCs [3]): ~20 fold
migratory response of CXCR4-expressing Jurkat cells [6]: significantly promoted
AMPK-α1 and LC3B mRNA (qRTPCR) (AMPK-α1 and LC3B): regulated autophagy at transcriptional level
migration of MSCs in transwell migration system relative to control (18 month MSCs [2]): strong migrating potential
